Assay results published in patent publication US9556165B2 (priority 2012, dated 2017).
In brackets after ≈: the same amount, converted by molar mass. Read-outs that look alike come from different tables or passages of the source.

How the values were obtained:
Assay type in all cases: cell-based
[1] = tested on: P. aeruginosa 2297 (AmpC wt); test: MIC determination, broth microdilution (CLSI); details: Pseudomonas aeruginosa, strain 7
[2] = tested on: E. coli ATCC25922; test: MIC determination, broth microdilution (CLSI); details: for MIC: Escherichia coli, ATCC25922, strain 1
[3] = tested on: A. baumannii ATCC15308; test: MIC determination, broth microdilution (CLSI); details: Acinetobacter baumannii, ATCC15308, strain 9
[4] = tested on: Bacteria; test: MIC determination in combination with β-lactamase inhibitors (constant 4 μg/mL)
[5] = tested on: E. coli J62; test: MIC determination, broth microdilution (CLSI); details: Escherichia coli, J62, strain 17; broth microdilution; read-out: MIC strain 17 (E. coli J62)
[6] = tested on: C. freundii K21/3034; test: MIC determination, broth microdilution (CLSI); details: Citrobacter freundii, K21/3034, strain 4
[7] = tested on: M. morganii 126/3048; test: MIC determination, broth microdilution (CLSI); details: Morganella morganii, 126/3048, strain 5
[8] = tested on: S. aureus 133; test: MIC determination, broth microdilution (CLSI)
[9] = tested on: P. aeruginosa PAO1; test: MIC determination, broth microdilution (CLSI); details: Pseudomonas aeruginosa, PAO1, strain 6
[10] = tested on: E. cloacae 34654; test: MIC determination, broth microdilution (CLSI); details: Enterobacter cloacae, 34654, strain 3
[11] = tested on: P. aeruginosa 2297-con (AmpC derepressed); test: MIC determination, broth microdilution (CLSI); details: Pseudomonas aeruginosa, read-out: strain 8 MIC, strain 8
[12] = tested on: K. pneumoniae 60; test: MIC determination, broth microdilution (CLSI); details: Klebsiella pneumoniae, 60, strain 2
[13] = tested on: E. coli J62-TEM-3; test: MIC determination, broth microdilution (CLSI); details: Escherichia coli, J62TEM3, read-out: MIC strain 18 (E. coli J62-TEM-3), strain 18; broth microdilution
[14] = tested on: S. pneumoniae 113; test: MIC determination, broth microdilution (CLSI); details: Streptococcus pneumoniae, 113, strain 13; broth microdilution; read-out: MIC strain 13 (S. pneumoniae 113)
[15] = tested on: H. influenzae ATCC 49247; test: MIC determination, broth microdilution (CLSI); details: Haemophilus influenzae, ATCC49247, strain 12; broth microdilution; read-out: MIC strain 12 (H. influenzae ATCC 49247)
[16] = tested on: B. fragilis 6688; test: MIC determination, broth microdilution (CLSI); details: Bacteroides fragilis, 6688, strain 15; broth microdilution; read-out: MIC strain 15 (B. fragilis 6688)
[17] = Staphylococcus aureus, 133, strain 14, broth microdilution, read-out: MIC strain 14 (S. aureus 133)
[18] = Staphylococcus aureus, 133, strain 11, read-out: strain 11 MIC

Row | SMILES | MIC [1] | MIC [2] | MIC [3] | MIC strain 19 (E. coli J62-TEM-3 + 4 μg/mL clavulanic acid) [4] | MIC strain 20 (E. coli J62-TEM-3 + 4 μg/mL sulbactam) [4] | MIC strain 21 (E. coli J62-TEM-3 + 4 μg/mL tazobactam) [4] | MIC [5] | MIC [6] | MIC [7] | MIC [8, 17] | MIC [9] | MIC [10] | MIC [11] | MIC [12] | MIC [13] | MIC [14] | MIC [15] | MIC [16] | MIC [8, 18] | strain 1 MIC ([2]; strain 1)
1 | C[C@H]1[C@H](NC(=O)/C(=N\OCCOc2cccc(C(=N)N)c2)c2csc(N)n2)C(=O)N1S(=O)(=O)O [Example 53, (2S,3S)-3-{[(2Z)-2-(2-Amino-1,3-thiazol-4-yl)-2-{[2-(3-carbamimidoylphenoxy)ethoxy]imino}acetyl]amino}-2-methyl-4-oxoazetidine-1-sulfonic acid] | 16 µg/mL (≈ 31.3 µM) | 0.5 µg/mL (≈ 0.977 µM) | 4 µg/mL (≈ 7.82 µM) | 1 µg/mL | 1 µg/mL | 1 µg/mL | 1 µg/mL (≈ 1.95 µM) | 0.5 µg/mL (≈ 0.977 µM) | 2 µg/mL (≈ 3.91 µM) | 32 µg/mL (≈ 62.6 µM) | 16 µg/mL (≈ 31.3 µM) | 0.5 µg/mL (≈ 0.977 µM) | 32 µg/mL (≈ 62.6 µM) |  |  |  |  |  |  | 
2 | CC(C)NC(=N)c1ccc(OCCO/N=C(\C(=O)N[C@@H]2C(=O)N(S(=O)(=O)O)[C@H]2C)c2csc(N)n2)cc1 [Example 54, (2S,3S)-3-({(2Z)-2-(2-Amino-1,3-thiazol-4-yl)-2-[(2-{4-[N-(propan-2-yl)carbamimidoyl]phenoxy}ethoxy)imino]acetyl}amino)-2-methyl-4-oxoazetidine-1-sulfonic acid] | 8 µg/mL (≈ 14.5 µM) | 0.5 µg/mL (≈ 0.903 µM) | 4 µg/mL (≈ 7.23 µM) | 0.5 µg/mL | 0.25 µg/mL | 0.5 µg/mL | 0.5 µg/mL (≈ 0.903 µM) | 0.25 µg/mL (≈ 0.452 µM) | 1 µg/mL (≈ 1.81 µM) | 2 µg/mL (≈ 3.61 µM) | 4 µg/mL (≈ 7.23 µM) | 0.5 µg/mL (≈ 0.903 µM) |  | 0.5 µg/mL (≈ 0.903 µM) | 16 µg/mL (≈ 28.9 µM) |  |  |  |  | 
3 | C[C@H]1[C@H](NC(=O)/C(=N\OCCOCc2cc(C(=N)N)cs2)c2csc(N)n2)C(=O)N1S(=O)(=O)O [Example 56, (2S,3S)-3-{[(2Z)-2-(2-Amino-1,3-thiazol-4-yl)-2-({2-[(4-carbamimidoylthiophen-2-yl)methoxy]ethoxy}imino)acetyl]amino}-2-methyl-4-oxoazetidine-1-sulfonic acid] | 32 µg/mL (≈ 60.2 µM) | 2 µg/mL (≈ 3.76 µM) | 4 µg/mL (≈ 7.52 µM) | 1 µg/mL | 4 µg/mL | 4 µg/mL | 2 µg/mL (≈ 3.76 µM) | 0.5 µg/mL (≈ 0.941 µM) | 0.5 µg/mL (≈ 0.941 µM) | 8 µg/mL (≈ 15 µM) | 32 µg/mL (≈ 60.2 µM) | 4 µg/mL (≈ 7.52 µM) |  | 0.5 µg/mL (≈ 0.941 µM) | 32 µg/mL (≈ 60.2 µM) | 4 µg/mL (≈ 7.52 µM) | 2 µg/mL (≈ 3.76 µM) | 32 µg/mL (≈ 60.2 µM) | 1 µg/mL (≈ 1.88 µM) | 
4 | C[C@H]1[C@H](NC(=O)/C(=N\OCCOc2nnc(C(=N)N)s2)c2csc(N)n2)C(=O)N1S(=O)(=O)O [Example 65, (2S,3S)-3-{[(2Z)-2-(2-Amino-1,3-thiazol-4-yl)-2-({2-[(5-carbamimidoyl-1,3,4-thiadiazol-2-yl)oxy]ethoxy}imino)acetyl]amino}-2-methyl-4-oxoazetidine-1-sulfonic acid] | 32 µg/mL (≈ 61.6 µM) | 0.5 µg/mL (≈ 0.962 µM) | 8 µg/mL (≈ 15.4 µM) | 0.5 µg/mL | 1 µg/mL | 2 µg/mL | 1 µg/mL (≈ 1.92 µM) | 0.25 µg/mL (≈ 0.481 µM) | 0.125 µg/mL (≈ 0.241 µM) | 8 µg/mL (≈ 15.4 µM) | 16 µg/mL (≈ 30.8 µM) | 0.5 µg/mL (≈ 0.962 µM) |  | 0.25 µg/mL (≈ 0.481 µM) | 32 µg/mL (≈ 61.6 µM) | 1 µg/mL (≈ 1.92 µM) | 0.5 µg/mL (≈ 0.962 µM) | 16 µg/mL (≈ 30.8 µM) | 0.25 µg/mL (≈ 0.481 µM) | 
5 | C[C@H]1[C@H](NC(=O)/C(=N\OCCOc2ccc(C(=N)NCCOC=O)cc2)c2csc(N)n2)C(=O)N1S(=O)(=O)O [Example 70, (2S,3S)-3-{[(2Z)-2-(2-Amino-1,3-thiazol-4-yl)-2-{[2-(4-{N-[2-(formyloxy)ethyl]carbamimidoyl}phenoxy)ethoxy]imino}acetyl]amino}-2-methyl-4-oxoazetidine-1-sulfonic acid] | 4 µg/mL (≈ 6.85 µM) | 0.125 µg/mL (≈ 0.214 µM) | 2 µg/mL (≈ 3.43 µM) | 0.25 µg/mL | 0.25 µg/mL | 0.25 µg/mL | 0.25 µg/mL (≈ 0.428 µM) | 0.125 µg/mL (≈ 0.214 µM) | 0.125 µg/mL (≈ 0.214 µM) | 8 µg/mL (≈ 13.7 µM) | 4 µg/mL (≈ 6.85 µM) | 0.25 µg/mL (≈ 0.428 µM) |  | 0.25 µg/mL (≈ 0.428 µM) | 16 µg/mL (≈ 27.4 µM) | 0.5 µg/mL (≈ 0.857 µM) | 0.125 µg/mL (≈ 0.214 µM) | 16 µg/mL (≈ 27.4 µM) | 0.125 µg/mL (≈ 0.214 µM) | 
6 | C[C@H]1[C@H](NC(=O)/C(=N\OCCOc2cc(C(=N)N)n(C)n2)c2csc(N)n2)C(=O)N1S(=O)(=O)O [Example 72, (2S,3S)-3-{[(2Z)-2-(2-Amino-1,3-thiazol-4-yl)-2-({2-[(5-carbamimidoyl-1-methyl-1H-pyrazol-3-yl)oxy]ethoxy}imino)acetyl]amino}-2-methyl-4-oxoazetidine-1-sulfonic acid] | 8 µg/mL (≈ 15.5 µM) | 0.5 µg/mL (≈ 0.97 µM) | 4 µg/mL (≈ 7.76 µM) | 1 µg/mL | 1 µg/mL | 1 µg/mL | 1 µg/mL (≈ 1.94 µM) | 0.5 µg/mL (≈ 0.97 µM) | 0.25 µg/mL (≈ 0.485 µM) | 16 µg/mL (≈ 31 µM) | 8 µg/mL (≈ 15.5 µM) | 1 µg/mL (≈ 1.94 µM) |  | 0.25 µg/mL (≈ 0.485 µM) | 32 µg/mL (≈ 62.1 µM) | 2 µg/mL (≈ 3.88 µM) | 0.5 µg/mL (≈ 0.97 µM) | 16 µg/mL (≈ 31 µM) | 0.25 µg/mL (≈ 0.485 µM) | 
7 | C[C@H]1[C@H](NC(=O)/C(=N\OCCOc2ccc(C(=N)NCCN)cc2)c2csc(N)n2)C(=O)N1OCS(=O)(=O)O [Example 77, {[(2S,3S)-3-{[(2Z)-2-[(2-{4-[N-(2-Aminoethyl)carbamimidoyl]phenoxy}ethoxy)imino]-2-(2-amino-1,3-thiazol-4-yl)acetyl]amino}-2-methyl-4-oxoazetidin-1-yl]oxy}methanesulfonic acid] | 16 µg/mL (≈ 27.4 µM) | 0.5 µg/mL (≈ 0.855 µM) | 8 µg/mL (≈ 13.7 µM) | 1 µg/mL | 1 µg/mL | 1 µg/mL | 0.5 µg/mL (≈ 0.855 µM) | 0.5 µg/mL (≈ 0.855 µM) | 2 µg/mL (≈ 3.42 µM) |  | 8 µg/mL (≈ 13.7 µM) | 2 µg/mL (≈ 3.42 µM) |  | 2 µg/mL (≈ 3.42 µM) | 16 µg/mL (≈ 27.4 µM) |  |  |  |  | 
8 | CC1(C)[C@H](NC(=O)/C(=N\O[C@H](COc2ccc(C(=N)NCc3ncc[nH]3)cc2)C(=O)O)c2csc(N)n2)C(=O)N1OS(=O)(=O)O [Example 105, (2R)-2-({[(1Z)-1-(2-Amino-1,3-thiazol-4-yl)-2-{[(3S)-2,2-dimethyl-4-oxo-1-(sulfooxy)-azetidin-3-yl]amino}-2-oxoethylidene]amino}oxy)-3-{4-[N-(1H-imidazol-2-ylmeth-yl)carbamimidoyl]phenoxy}propanoic acid] |  |  |  |  |  |  |  |  |  |  |  |  |  |  |  |  |  |  |  | 16 µg/mL
